In patent US20070264229A1, “Peptides for Treatment of Autoimmune Disease” (priority 2004, published 2007):
Where two headings read alike, the source gives them in different places.

How the values were obtained:
[1] = test system: spleen and lymph node cells of SJL/J mice; settings: copolymer, Illés 2004 / Stern 2004 PNAS; cited from earlier work
HLA-DR2 (DRA/DRB1*1501) = target: T1, HLA-DR2 (DRA/DRB1*1501) (Homo sapiens, UniProt P01903+P01911); assay: Competitive binding assay for HLA-DR2: inhibition of biotinylated MBP 85-99 binding
T1 construct: isolate soluble HLA-DR2 molecules which had been expressed in Drosophila S2 cells; made in house; host or cells: Drosophila S2 cells
Procedure: The reaction mixtures were transferred to plates coated with LB3.1 Ab specific to HLA DR2 molecules. Following addition of streptavidin-conjugated alkaline phosphatase, absorbance was measured at 450 nm by using a microtiter plate reader. Percent inhibition was calculated as described in the Materials and Methods. […] These studies were performed as described ([…]. et al. 2002. J Clin Invest 109:1635). […] Antigen presentation assay was performed as described previously [[…]. et al. 2001 Hum Immunol 62:753].

[2] = test system: MBP85-99-specific transgenic (hVβ2+CD4+) and endogenous (hVβ2−CD4+) T cells; assay: Cross-reactivity: proliferation of sorted transgenic and endogenous CD4+ T cells from humanized mice; format: cell-based, mouse; settings: 10 μg/ml MBP85-99 or 100 μg/ml peptide, FIG. 3A
Procedure: To sort human TCR transgenic T cells specific to MBP 85-99, splenocytes from humanized mice were incubated with anti-CD4-APC (clone GK1.5, obtained from PharMingen, San Diego, Calif.) and anti-human Vβ2-PE (Immunotech, Marseille, France) at room temperature for 20 min. After washing twice, tg and endogenous or non-tg CD4 T cells (hVβ2^−CD4 cells) were sorted using a FACS Vantage SE apparatus (Becton Dickinson, San Diego, Calif.). The purity of fractionated hVβ2^+CD4^+ and hVβ2^−CD4^+ T cells was determined to be 98-99%.
SJL/J mice were immunized with PLP 139-151 or with each of the peptides (100 μg per mouse) emulsified in complete Freund's adjuvant (CFA; Difco Laboratories, Detroit, Mich.). Ten days later, single cell suspensions were prepared from spleens and lymph nodes, and were stimulated and re-stimulated with corresponding peptides at a concentration of 10 μg/ml in the presence of APC. After two rounds of stimulation, viable lymphocytes were separated by Ficoll-Hypaque density gradient centrifugation and were tested for specificity at a dose range of 0 to 50 μg/ml. NASE 101-120 peptide, which also binds I-A^s was used as a negative control. Lymphocytes were cultured in 96-well plates at a density of 5×10^5 cells per ml for 48 hrs, and were pulsed with ^3[H]-thymidine, 1 μCi per well. After sixteen hours of culture, plates were harvested and a Wallac scintillation counter (model 1250) was used to analyze the proliferative response determined by amount of ^3[H]-thymidine incorporation CPM. To determine the proliferative response of each of tg T cells expressing HLA-DR2 and human MBP 85-99-specific TCR, and non-tg T cells, the cells fractionated by flow cytometry were seeded in complete medium at 4×10^5 cells/well in 96-well U-bottom microtiter plates. Irradiated splenocytes of humanized mice were used as APC.
Therefore, MBP85-99-specific transgenic (hVβ2^+CD4^+) and endogenous (non-transgenic, hVβ2^−CD4^+) T cells were sorted by flow cytometry from spleen cells of humanized double transgenic mice.

[3] = test system: PLP139-151 specific cell line; assay: Cross-reactivity with PLP139-151 specific cell line; format: cell-based, mouse; settings: FIG. 3B
Procedure: The proliferative responses were measured as CPM after pulsing with ^3[H] thymidine.

[4] = test system: EAE in HLA-DR2 and MBP85-99-specific TCR double tg mice; settings: previous study, Illés 2004 PNAS 101:11749; cited from earlier work
relapsing-remitting MS = settings: relapsing-remitting forms of MS, cited from earlier work

Substance	induction of immunosuppressive cytokines IL-4 and IL-10 [1]	% inhibition (HLA-DR2 (DRA/DRB1*1501); Binding of biotinylated MBP (0.5 μM) by peptide competitor (1 μM)) [%]	inhibition of binding of biotinylated MBP 85-99 to HLA-DR2 (in words) (HLA-DR2 (DRA/DRB1*1501); recombinant HLA-DR2, FIG. 1A and Table 1)	proliferation of MBP85-99-specific transgenic or endogenous CD4+ cells [2]	response of PLP139-151 specific cell line (cross reactivity) [3]	mean maximal score [4]	reduction of relapse rate (relapsing-remitting MS)	reduction of relapse rate (relapsing-remitting MS; listed as Copolymer 1) [%]	mean maximum score (EAE in SJL/J mice; at around day 22, co-immunized with PLP139-151, FIG. 5B)	severity of EAE (in words) (EAE in SJL/J mice; co-immunized with PLP139-151, FIG. 5B)
poly(F,Y,A,K)n [FYAK]	most effective	–	–	–	–	–	–	–	–	–
poly[Y, E, A, K]n [Cop1]	–	8	less efficiently than peptides J1, J2, J3 and J5	did not cross-react	did not cross-react	3.5	about 30%	30	2.5	moderately suppressed
